This is an account of results in patent US20240270762A1, “PENICILLIN-BINDING PROTEIN INHIBITORS” (priority 2021, published 2024).

Values after ≈ are worked out from the molar mass of the structure shown. Some results are limits rather than exact numbers.

Experiment [1] has as its system N. gonorrhoeae WHO M. As to the kind of experiment: Liquid broth MIC in Fastidious broth. The settings on record: Neisseria gonorrhoeae, read-out: Minimum Inhibitory Concentration (MIC), N. gonorrhoeae WHO M.
In experiment [2] the test system is N. gonorrhoeae WHO X. Nature of the experiment: Liquid broth MIC in Fastidious broth. The settings on record: Neisseria gonorrhoeae, read-out: Minimum Inhibitory Concentration (MIC), N. gonorrhoeae WHO X.
Experiment [3] concerns N. gonorrhoeae WHO K. Nature of the experiment: Liquid broth MIC in Fastidious broth. The settings on record: Neisseria gonorrhoeae, read-out: Minimum Inhibitory Concentration (MIC), N. gonorrhoeae WHO K.
Protocol: Liquid broth-based assays were used for antibacterial testing of PBP inhibitors in Neisseria gonorrhoeae. Briefly, cryo-preserved bacterial cultures of clinical strains were streaked for isolation on Chocolate Agar (72 g/L (2×) GC Agar Base (BD #228950) and 2% (2×) Hemoglobin was autoclaved at 121° C. for 20 minutes to sterilize. Once cooled to ˜50° C. the 2×GC Agar Base and 2× Hemoglobin solutions are combined and 1% IsoVitaleX Enrichment (BD #211876) was added to the solution). Strains were incubated at 36° C. and 5% CO2 to allow growth of colonies, 24 hours before inoculum preparation. 2-fold serial dilutions of test compounds were conducted in a 96 well plate with a final volume of 75 μL per well at 2-fold the final desired concentration in Fastidious broth (Remel #R07664). For preparation of assay inoculum, a direct suspension was prepared by aseptically swabbing 10-15 colonies from agar plates into culture tubes containing 2 mL of fresh sterile saline. After the dilution plates were set up, direct suspensions were then diluted in a cuvette containing sterile saline and the optical density was measured at 600 nm. Inocula were diluted such that 75 μL of this culture in Fastidious broth results in a starting bacterial concentration of 5×10^5 CFU/mL when added to the dilution plates. The plates were incubated for ˜24 hours at 36° C. and 5% CO2.
In experiment [4] the test system is A. baumannii CDC-0083. Nature of the experiment: microbe, parasite or virus in culture. The experiment is classed as cell-based. Conditions: Acinetobacter baumannii, CDC0083, read-out: MIC, A. baumannii CDC-0083.
The subject of experiment [5] is A. baumannii 1258916. As to the kind of experiment: microbe, parasite or virus in culture. The experiment is classed as cell-based, Acinetobacter baumannii. Conditions: Acinetobacter baumannii, 1258916, read-out: MIC, A. baumannii 1258916.
Experiment [6] concerns P. aeruginosa CDC-0110. Nature of the experiment: microbe, parasite or virus in culture. Conditions: Pseudomonas aeruginosa, CDC0110, read-out: Minimum inhibitory concentration, P. aeruginosa CDC-0110. The format is cell-based.
For experiment [7], the system named is P. aeruginosa CDC-0095. As to the kind of experiment: microbe, parasite or virus in culture. The format is cell-based. Conditions: Pseudomonas aeruginosa, CDC0095, read-out: Minimum inhibitory concentration, P. aeruginosa CDC-0095.
For experiment [8], the target named is T1, PBP3 from Acinetobacter baumannii (ATCC 19606) (Acinetobacter baumannii, UniProt A0ABX6CK25).
T1 sequence (A0ABX6CK25 64-610): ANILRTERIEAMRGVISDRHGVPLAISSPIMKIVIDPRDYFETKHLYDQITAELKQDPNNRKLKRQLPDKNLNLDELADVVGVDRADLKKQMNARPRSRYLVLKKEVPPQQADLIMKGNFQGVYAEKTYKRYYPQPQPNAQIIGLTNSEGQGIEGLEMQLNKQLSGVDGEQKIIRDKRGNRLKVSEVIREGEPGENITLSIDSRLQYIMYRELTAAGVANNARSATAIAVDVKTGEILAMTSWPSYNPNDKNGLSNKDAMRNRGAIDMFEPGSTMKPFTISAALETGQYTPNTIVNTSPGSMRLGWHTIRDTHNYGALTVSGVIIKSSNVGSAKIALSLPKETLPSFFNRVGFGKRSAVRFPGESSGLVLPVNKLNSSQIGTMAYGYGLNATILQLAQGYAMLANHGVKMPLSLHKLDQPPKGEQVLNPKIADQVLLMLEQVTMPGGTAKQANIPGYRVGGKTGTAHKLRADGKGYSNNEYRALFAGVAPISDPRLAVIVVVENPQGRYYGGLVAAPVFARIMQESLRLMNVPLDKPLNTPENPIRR
Nature of the experiment: Bocillin-FL fluorescence polarization competition binding, A. baumannii PBP3. Conditions: fluorescence polarization competition binding assay using Bocillin-FL; read-out: A. baumannii PBP3 Potency. The gist of the method: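 Purified PBP was preincubated with inhibitor (E. coli PBP3 1.5 μM, 30 min; P. aeruginosa PBP3 0.75 μM, A. baumannii PBP3 0.2 μM and PBP1a 1 μM, 15 min), then Bocillin-FL (0.1 μM; 0.05 μM for PBP1a) added and FP read up to 60 min. EC50 = 50% loss of bound probe.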
(Fluorescence polarisation rises when a labelled molecule tumbles more slowly, as on binding a larger partner.)

Experiment [9] has as its system A. baumannii CDC-0033. As to the kind of experiment: microbe, parasite or virus in culture. The experiment is classed as cell-based. Conditions: Acinetobacter baumannii, CDC0033, read-out: MIC, A. baumannii CDC-0033.
Experiment [10] deals with P. aeruginosa CDC-0090. Nature of the experiment: microbe, parasite or virus in culture. The settings on record: Pseudomonas aeruginosa, CDC0090, read-out: Minimum inhibitory concentration, P. aeruginosa CDC-0090. The format is cell-based.
In experiment [11] the test system is A. baumannii ATCC 17978. Nature of the experiment: microbe, parasite or virus in culture. The format is cell-based. Conditions: Acinetobacter baumannii, ATCC17978, read-out: MIC, A. baumannii ATCC 17978.

In the case of `O=C(O)c1cccc2c1OB(O)[C@@H](NC(=O)[C@@H](NC(=O)c1cnc3n(c1=O)CCS3)c1ccc(P(=O)(O)O)cc1)C2` (single isomer, unassigned) [Example 196], the MIC in [1], in experiment [2] and in experiment [3] was 16 to 32 µg/mL (≈ 26.7 to 53.3 µM) each time.

For `O=C(O)c1cccc2c1OB(O)[C@@H](NC(=O)[C@H](NC(=O)c1cnc3n(c1=O)CCS3)c1ccc(P(=O)(O)O)cc1)C2` (single isomer, unassigned) [Example 197], the MIC was in the range of 4 to 8 µg/mL (≈ 6.66 to 13.3 µM) in experiment [1], 16 to 32 µg/mL (≈ 26.7 to 53.3 µM) in experiment [2] and 16 to 32 µg/mL (≈ 26.7 to 53.3 µM) in experiment [3].

For `CCN1CCN(C(=O)NC(C(=O)N[C@H]2Cc3cccc(C(=O)O)c3OB2O)c2ccc(P(=O)(O)O)c(F)c2O)C(=O)C1=O` (stereo partly drawn) [Example 198, (3R)-3-(2-(4-ethyl-2,3-dioxopiperazine-1-carboxamido)-2-(3-fluoro-2-hydroxy-4-phosphonophenyl)acetamido)-2-hydroxy-3,4-dihydro-2H-benzo[e][1,2]oxaborinine-8-carboxylic acid], the MIC in experiment [1] is under 1 µg/mL; in experiment [2], 4 to 8 µg/mL (≈ 6.43 to 12.9 µM); in experiment [3], 4 to 8 µg/mL (≈ 6.43 to 12.9 µM).

For `CN(CCN1CCN(C(=O)N[C@@H](C(=O)N[C@H]2Cc3ccc(F)c(C(=O)O)c3OB2O)c2cc(F)c(O)c(O)c2Cl)C(=O)C1=O)Cc1nccs1` [Example 200, (R)-3-((R)-2-(2-chloro-5-fluoro-3,4-dihydroxyphenyl)-2-(4-(2-(methyl(thiazol-2-ylmethyl)amino)ethyl)-2,3-dioxopiperazine-1-carboxamido)acetamido)-7-fluoro-2-hydroxy-3,4-dihydro-2H-benzo[e][1,2]oxaborinine-8-carboxylic acid], the MIC was 4 to 8 µg/mL (≈ 5.43 to 10.9 µM) in experiment [1]; over 64 µg/mL in experiment [2]; under 1 µg/mL in experiment [4]; under 1 µg/mL in [5]; under 1 µg/mL in experiment [6]; under 1 µg/mL in experiment [7]. In addition, the MIC in experiment [9] was 2 to 4 µg/mL (≈ 2.71 to 5.43 µM); in experiment [3] it was 16 to 32 µg/mL (≈ 21.7 to 43.4 µM); in experiment [10], under 1 µg/mL; in experiment [11] it was under 1 µg/mL. Further, in [8], the IC50 was under 10 µM.

As to `CN(CCN1CCN(C(=O)N[C@@H](C(=O)N[C@H]2Cc3ccc(F)c(C(=O)O)c3OB2O)c2cc(F)c(O)c(O)c2Cl)C(=O)C1=O)Cc1cccnc1` [Example 201, (R)-3-((R)-2-(2-chloro-5-fluoro-3,4-dihydroxyphenyl)-2-(4-(2-(methyl(pyridin-3-ylmethyl)amino)ethyl)-2,3-dioxopiperazine-1-carboxamido)acetamido)-7-fluoro-2-hydroxy-3,4-dihydro-2H-benzo[e][1,2]oxaborinine-8-carboxylic acid], the MIC in experiment [1] is 4 to 8 µg/mL (≈ 5.47 to 10.9 µM); in experiment [2] it was over 64 µg/mL; in experiment [4], under 1 µg/mL; in experiment [5], under 1 µg/mL; in experiment [6], under 1 µg/mL; in experiment [7], under 1 µg/mL. Moreover, the MIC is 2 to 4 µg/mL (≈ 2.74 to 5.47 µM) in [9], 16 to 32 µg/mL (≈ 21.9 to 43.8 µM) in experiment [3], under 1 µg/mL in [10] and under 1 µg/mL in experiment [11]. In addition, the IC50 in [8] was under 10 µM.

For the molecule `O=C(NCCCN1CCN(C(=O)NC(C(=O)N[C@H]2Cc3ccc(F)c(C(=O)O)c3OB2O)c2cc(F)c(O)c(O)c2Cl)C(=O)C1=O)c1ccccc1` (stereo partly drawn) [Example 202, (3R)-3-(2-(4-(3-benzamidopropyl)-2,3-dioxopiperazine-1-carboxamido)-2-(2-chloro-5-fluoro-3,4-dihydroxyphenyl)acetamido)-7-fluoro-2-hydroxy-3,4-dihydro-2H-benzo[e][1,2]oxaborinine-8-carboxylic acid], the MIC was 16 to 32 µg/mL (≈ 21.5 to 43 µM) in experiment [1]; over 64 µg/mL in experiment [2]; under 1 µg/mL in experiment [4]; under 1 µg/mL in experiment [5]; under 1 µg/mL in [6]; 2 to 4 µg/mL (≈ 2.69 to 5.38 µM) in experiment [7]. For the same molecule, the MIC was 8 to 16 µg/mL (≈ 10.8 to 21.5 µM) in experiment [9], over 64 µg/mL in [3], 2 to 4 µg/mL (≈ 2.69 to 5.38 µM) in experiment [10] and under 1 µg/mL in [11]. The IC50 in experiment [8] is under 10 µM.

For `O=C(NCCCN1CCN(C(=O)NC(C(=O)N[C@H]2Cc3ccc(F)c(C(=O)O)c3OB2O)c2cc(F)c(O)c(O)c2Cl)C(=O)C1=O)c1ccc(O)cc1` (stereo partly drawn) [Example 203, (3R)-3-(2-(2-chloro-5-fluoro-3,4-dihydroxyphenyl)-2-(4-(3-(4-hydroxybenzamido)propyl)-2,3-dioxopiperazine-1-carboxamido)acetamido)-7-fluoro-2-hydroxy-3,4-dihydro-2H-benzo[e][1,2]oxaborinine-8-carboxylic acid], the MIC in experiment [1] was 4 to 8 µg/mL (≈ 5.26 to 10.5 µM); in [2] it was over 64 µg/mL; in [4] it was under 1 µg/mL; in experiment [5], under 1 µg/mL; in experiment [6] it was under 1 µg/mL; in experiment [7] it was 2 to 4 µg/mL (≈ 2.63 to 5.26 µM). Besides, the MIC in experiment [9] is 2 to 4 µg/mL (≈ 2.63 to 5.26 µM); in [3], over 64 µg/mL; in experiment [10], under 1 µg/mL; in experiment [11] it was under 1 µg/mL. Moreover, in experiment [8], the IC50 was under 10 µM.

`O=C(NCCCN1CCN(C(=O)NC(C(=O)N[C@H]2Cc3ccc(F)c(C(=O)O)c3OB2O)c2cc(F)c(O)c(O)c2Cl)C(=O)C1=O)c1cccc(O)c1` (stereo partly drawn) [Example 204, (3R)-3-(2-(2-chloro-5-fluoro-3,4-dihydroxyphenyl)-2-(4-(3-(3-hydroxybenzamido)propyl)-2,3-dioxopiperazine-1-carboxamido)acetamido)-7-fluoro-2-hydroxy-3,4-dihydro-2H-benzo[e][1,2]oxaborinine-8-carboxylic acid]: the MIC is 4 to 8 µg/mL (≈ 5.26 to 10.5 µM) in experiment [1]; over 64 µg/mL in [2]; under 1 µg/mL in [4]; under 1 µg/mL in experiment [5]; under 1 µg/mL in [6]; under 1 µg/mL in [7]. Further, the MIC in experiment [9] was 2 to 4 µg/mL (≈ 2.63 to 5.26 µM); in experiment [3], over 64 µg/mL; in experiment [10], under 1 µg/mL; in experiment [11] it was under 1 µg/mL. Besides, the IC50 in experiment [8] was under 10 µM.

Regarding `O=C(NCCCN1CCN(C(=O)NC(C(=O)N[C@H]2Cc3ccc(F)c(C(=O)O)c3OB2O)c2cc(F)c(O)c(O)c2Cl)C(=O)C1=O)c1ccncc1` (stereo partly drawn) [Example 205, (3R)-3-(2-(2-chloro-5-fluoro-3,4-dihydroxyphenyl)-2-(4-(3-(isonicotinamido)propyl)-2,3-dioxopiperazine-1-carboxamido)acetamido)-7-fluoro-2-hydroxy-3,4-dihydro-2H-benzo[e][1,2]oxaborinine-8-carboxylic acid], the MIC in experiment [1] is 4 to 8 µg/mL (≈ 5.37 to 10.7 µM); in experiment [2], over 64 µg/mL; in [4], under 1 µg/mL; in experiment [5], under 1 µg/mL; in experiment [6], under 1 µg/mL; in experiment [7] it was under 1 µg/mL. In addition, the MIC is 2 to 4 µg/mL (≈ 2.69 to 5.37 µM) in experiment [9], over 64 µg/mL in [3], under 1 µg/mL in experiment [10] and under 1 µg/mL in [11]. In addition, the IC50 in [8] is under 10 µM.

As to `O=C(CN1CCN(C(=O)NC(C(=O)N[C@H]2Cc3ccc(F)c(C(=O)O)c3OB2O)c2cc(F)c(O)c(O)c2Cl)C(=O)C1=O)NCc1ccc(O)cc1` (stereo partly drawn) [Example 236, (3R)-3-(2-(2-chloro-5-fluoro-3,4-dihydroxyphenyl)-2-(4-(2-((4-hydroxybenzyl)amino)-2-oxoethyl)-2,3-dioxopiperazine-1-carboxamido)acetamido)-7-fluoro-2-hydroxy-3,4-dihydro-2H-benzo[e][1,2]oxaborinine-8-carboxylic acid], the MIC was over 128 µg/mL in [4], 2 to 4 µg/mL (≈ 2.68 to 5.36 µM) in [5], 8 to 16 µg/mL (≈ 10.7 to 21.5 µM) in [9] and under 1 µg/mL in experiment [11]. Besides, in experiment [8], the IC50 is under 10 µM.
